Experimental data taken from patent US5733913A, “6-Aryl pyrido[2,3-d] pyrimidines and naphthyridines for inhibiting protein tyrosine kinase mediated cellular proliferation” (priority 1995, dated 1998).

Tests used:
[1] = molecular target: T1, C-src kinase (Homo sapiens, UniProt P12931); assay: C-src kinase assay; format: biochemical; conditions: for IC50: read-out: Inhibition of Protein Tyrosine Kinases, C-src, IC50; for inhibition at 50 µM: read-out: Inhibition of Protein Tyrosine Kinases, C-src, % Inhibition
T1 construct: made in house; host or cells: baculovirus-infected insect cells
T1 sequence (P12931 whole entry): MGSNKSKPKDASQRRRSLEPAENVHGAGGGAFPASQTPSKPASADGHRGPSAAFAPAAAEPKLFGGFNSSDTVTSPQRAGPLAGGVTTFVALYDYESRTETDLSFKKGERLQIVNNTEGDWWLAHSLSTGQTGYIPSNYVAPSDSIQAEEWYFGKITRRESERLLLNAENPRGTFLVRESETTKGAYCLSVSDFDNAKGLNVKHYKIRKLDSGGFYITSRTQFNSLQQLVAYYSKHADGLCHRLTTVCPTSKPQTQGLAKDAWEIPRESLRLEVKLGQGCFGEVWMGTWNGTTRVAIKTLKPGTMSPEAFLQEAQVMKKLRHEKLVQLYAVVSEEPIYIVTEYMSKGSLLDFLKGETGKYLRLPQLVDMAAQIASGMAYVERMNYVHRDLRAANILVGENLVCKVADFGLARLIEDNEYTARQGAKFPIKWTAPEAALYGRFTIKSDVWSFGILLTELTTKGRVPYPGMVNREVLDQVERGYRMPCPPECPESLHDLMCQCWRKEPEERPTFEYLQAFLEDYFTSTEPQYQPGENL
Summary of the method: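 Baculovirus-expressed c-src immunopurified on antibody-coated latex beads, assayed in 40 mM Tris pH 7.5, 5 mM MgCl2 with poly GluTyr substrate and 5 μM ATP plus 32P-ATP. Reaction 10 min at room temperature, TCA-quenched, filtered; incorporated label counted by scintillation.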

[2] = molecular target: T2, mouse PDGF-β receptor tyrosine kinase (Mus musculus, UniProt P05622); assay: PDGF receptor tyrosine kinase assay; format: biochemical; conditions: for IC50: read-out: Inhibition of Protein Tyrosine Kinases, PDGF, IC50; for inhibition at 50 µM: read-out: Inhibition of Protein Tyrosine Kinases, PDGF, % Inhibition
T2 construct: a fragment of DNA that codes for the intracellular tyrosine kinase domain; made in house; host or cells: Sf9 insect cells (baculovirus), cell lysate
T2 sequence (P05622 599-961 limits assumed): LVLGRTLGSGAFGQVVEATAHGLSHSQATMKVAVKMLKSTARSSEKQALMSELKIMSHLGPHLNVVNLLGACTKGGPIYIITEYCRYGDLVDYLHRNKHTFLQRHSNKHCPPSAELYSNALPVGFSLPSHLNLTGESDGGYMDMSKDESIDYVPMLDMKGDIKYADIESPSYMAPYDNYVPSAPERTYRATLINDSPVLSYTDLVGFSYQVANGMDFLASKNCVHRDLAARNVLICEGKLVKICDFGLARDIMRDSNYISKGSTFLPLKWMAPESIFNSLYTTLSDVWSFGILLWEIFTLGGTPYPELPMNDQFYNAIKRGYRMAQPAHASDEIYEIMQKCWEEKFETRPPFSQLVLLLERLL
Summary of the method: (§1)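 Intracellular kinase domains expressed in baculovirus-infected SF9 cells; crude lysate used as enzyme. Inhibitor preincubated 10 min at 25 °C with lysate in pH 7.0 Hepes buffer with 10 mM MnCl2 and poly(Glu-Tyr) 4:1, then γ-32P-ATP (50 μM ATP) added for 10 min at 25 °C. TCA-precipitated 32P on filters counted, no-enzyme background subtracted.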

[3] = molecular target: T3, human FGF-1 (flg) receptor tyrosine kinase (Homo sapiens, UniProt P11362); assay: FGF receptor tyrosine kinase assay; format: biochemical; conditions: for IC50: read-out: Inhibition of Protein Tyrosine Kinases, FGF, IC50; for inhibition at 50 µM: read-out: Inhibition of Protein Tyrosine Kinases, FGF, % Inhibition
T3 construct: a fragment of DNA that codes for the intracellular tyrosine kinase domain; made in house; host or cells: Sf9 insect cells (baculovirus), cell lysate
T3 sequence (P11362 478-767 limits assumed): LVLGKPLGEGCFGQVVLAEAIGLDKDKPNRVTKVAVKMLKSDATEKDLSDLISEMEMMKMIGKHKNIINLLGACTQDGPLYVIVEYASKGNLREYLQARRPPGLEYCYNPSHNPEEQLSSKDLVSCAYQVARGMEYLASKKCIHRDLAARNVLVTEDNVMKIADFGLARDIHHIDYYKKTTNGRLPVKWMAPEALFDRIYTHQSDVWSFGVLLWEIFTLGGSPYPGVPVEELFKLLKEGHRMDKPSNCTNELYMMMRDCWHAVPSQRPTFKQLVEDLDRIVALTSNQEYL
Summary of the method: as §1

[4] = molecular target: T4, Human EGF receptor tyrosine kinase (Homo sapiens, UniProt P00533); assay: EGF receptor tyrosine kinase assay; format: biochemical; conditions: at 50 μM; read-out: Inhibition of Protein Tyrosine Kinases, EGF, % Inhibition
T4 construct: isolated from A431 epidermoid carcinoma cells; endogenous in cells; host or cells: A431 epidermoid carcinoma cells (Triton lysate, wheat germ agglutinin eluate)
T4 sequence (P00533 25-1210): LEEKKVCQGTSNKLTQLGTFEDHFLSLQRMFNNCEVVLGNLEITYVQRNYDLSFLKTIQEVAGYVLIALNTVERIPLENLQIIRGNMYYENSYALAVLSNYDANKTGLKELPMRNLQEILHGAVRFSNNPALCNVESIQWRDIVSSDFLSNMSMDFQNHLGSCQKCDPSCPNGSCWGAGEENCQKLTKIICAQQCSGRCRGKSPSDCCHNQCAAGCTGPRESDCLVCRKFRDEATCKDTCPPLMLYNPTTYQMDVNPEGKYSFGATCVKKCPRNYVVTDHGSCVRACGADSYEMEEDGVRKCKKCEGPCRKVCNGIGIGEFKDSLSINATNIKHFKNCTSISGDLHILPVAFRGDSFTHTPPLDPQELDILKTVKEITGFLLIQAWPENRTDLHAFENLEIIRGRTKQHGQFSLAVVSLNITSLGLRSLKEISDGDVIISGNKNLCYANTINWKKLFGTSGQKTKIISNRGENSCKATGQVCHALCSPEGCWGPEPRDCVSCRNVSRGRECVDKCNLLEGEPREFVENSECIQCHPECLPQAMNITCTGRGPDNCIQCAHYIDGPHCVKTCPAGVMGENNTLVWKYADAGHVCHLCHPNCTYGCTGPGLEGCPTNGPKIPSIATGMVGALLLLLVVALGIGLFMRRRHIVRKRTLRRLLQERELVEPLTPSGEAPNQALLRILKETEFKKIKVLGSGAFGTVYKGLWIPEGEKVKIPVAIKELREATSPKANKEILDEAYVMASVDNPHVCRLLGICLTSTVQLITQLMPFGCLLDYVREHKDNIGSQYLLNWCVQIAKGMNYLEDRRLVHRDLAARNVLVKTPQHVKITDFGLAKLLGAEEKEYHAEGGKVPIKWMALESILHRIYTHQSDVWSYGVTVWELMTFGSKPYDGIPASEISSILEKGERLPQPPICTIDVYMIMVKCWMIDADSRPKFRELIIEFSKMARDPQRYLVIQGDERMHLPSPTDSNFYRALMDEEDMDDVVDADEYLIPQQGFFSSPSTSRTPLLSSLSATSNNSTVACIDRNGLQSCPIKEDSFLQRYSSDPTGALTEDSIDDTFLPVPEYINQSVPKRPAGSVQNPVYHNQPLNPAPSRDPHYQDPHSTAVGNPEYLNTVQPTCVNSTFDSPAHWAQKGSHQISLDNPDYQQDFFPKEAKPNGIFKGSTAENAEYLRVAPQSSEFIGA
Experimental: Purification of Epidermal Growth Factor Receptor Tyrosine Kinase
Human EGF receptor tyrosine kinase was isolated from A431 epidermoid carcinoma cells by the following methods. Cells were grown in roller bottles in 50% Delbuco's Modified Eagle and 50% HAM F-12 nutrient media (Gibco) containing 10% fetal calf serum. Approximately 10^9 cells were lysed in two volumes of buffer containing 20 mM 2-(4N-[2-hydroxyethyl]piperazin-1-yl)ethanesulfonic acid, pH 7.4, 5 mM ethylene glycol bis(2-aminoethyl ether)N,N,N',N'-tetraacetic acid, 1% Triton X-100, 10% glycerol, 0.1 mM sodium orthovanadate, 5 mM sodium fluoride, 4 mM pyrophosphate, 4 mM benzamide, 1 mM dithiothreitol, 80 μg/mL aprotinin, 40 μg/mL leupeptin, and 1 mM phenylmethylsulfonyl fluoride. After centrifugation at 25,000×g for 10 minutes, the supernatant was equilibrated for 2 hours at 4° C. with 10 mL of wheat germ agglutinin sepharose that was previously equilibrated with 50 mM Hepes, 10% glycerol, 0.1% Triton X-100 and 150 mM NaCl, pH 7.5, (equilibration buffer). Contaminating proteins were washed from the resin with 1M NaCl in equilibration buffer, and the enzyme was eluted with 0.5M N-acetyl-1-D-glucosamine in equilibration buffer.
Determination of IC50 Values
The reaction was terminated by the addition of 2 mL of 75 mM phosphoric acid and passed through a 2.5-cm phosphocellulose filter disc to bind the peptide. The filter was washed five times with 75 mM phosphoric acid and placed in a vial along with 5 mL of scintillation fluid (Ready gel Beckman).

[5] = test system: PDGF receptor; assay: PDGF receptor autophosphorylation in RASMC; format: cell-based, rat; conditions: PDGF-BB 30 ng/mL, read-out: Inhibition of PDGF Stimulated Receptor Auto Phosphorylation (IC50)
Experimental: Rat aorta smooth muscle cells (RASMC) were isolated from the thoracic aorta of rats and explanted according to the method of Ross, J. Cell. […] Cells were grown in Dulbecco's modified Eagle's medium (DMEM, Gibco) containing 10% fetal calf serum (FBS, Hyclone, Logan, Utah), 1% glutamine (Gibco) and 1% penicillin/streptomycin (Gibco). Cells were identified as smooth muscle cells by their "hill and valley" growth pattern and by fluorescent staining with a monoclonal antibody specific for SMC μ-actin (Sigma). RASMC were used between passages 5 and 20 for all experiments. Test compounds were prepared in dimethylsulfoxide (DMSO) in order to achieve consistency in the vehicle and to ensure compound solubility. Appropriate DMSO controls were simultaneously evaluated with the test compounds.
PDGF Receptor Autophosphorylation
RASMC were grown to confluency in 100 mm dishes. Growth medium was removed and replaced with serum-free medium and cells were incubated at 37° C. for an additional 24 hours. Test compounds were then added directly to the medium and cells incubated for an additional 2 hours. After 2 hours, PDGF-BB was added at a final concentration of 30 ng/mL for 5 minutes at 37° C. to stimulated autophosphorylation of the PDGF receptor. Following growth factor treatment, the medium was removed, and cells were washed with cold phosphate-buffered saline and immediately lysed with 1 mL of lysis buffer (50 mM HEPES[pH 7.5], 150 mM NaCl, 10% glycerol, 1% Triton X-100, 1 mM EDTA, 1 mMEGTA, 50 mM NaF, 1 mM sodium orthovanadate, 30 mM p-nitrophenyl phosphate, 10 mM sodium pyrophosphate, 1 mM phenylmethyl sulfonyl fluoride, 10 μg/mL aprotinin, and 10 μg/mL leupeptin). Lysates were centrifuged at 10,000×g for 10 minutes. […] Following the incubation, protein-A-sepharose beads were added for 2 hours with continuous mixing, and immune complexes bound to the beads washed 4 times with 1 mL lysis wash buffer. Immune complexes were solubilized in 30 μL of Laemmli sample buffer and electrophoresed in 4-20% SDS polyacrylamide gels. Following electrophoresis, separated proteins were transferred to nitrocellulose and immunoblotted with anti-phosphotyrosine antiserum. […] IC50 values were generated from the densitometric data.

[6] = test system: V-src kinase; assay: V-src kinase assay; format: biochemical; conditions: at 50 μM
Experimental: V-src and C-src Kinase Assays
V-src or C-src kinase is purified from baculovirus infected insect cell lysates using an antipeptide monoclonal antibody directed against the N-terminal 2-17 amino acids. The antibody, covalently linked to 0.65-μm latex beads, is added to a suspension of insect cell lysis buffer comprised of 150 mM NaCl, 50 mM Tris pH 7.5, 1 mM DTT, 1% NP-40, 2 mM EGTA, 1 mM sodium vanadate, 1 mM PMSF, 1 μg/mL each of leupeptin, pepstatin, and aprotinin. Insect cell lysate containing either the c-src or v-src protein is incubated with these beads for 3-4 hours at 4° C. with rotation. At the end of the lysate incubation, the beads are rinsed 3 times in lysis buffer, resuspended in lysis buffer containing 10% glycerol, and frozen. These latex beads are thawed, rinsed three times in assay buffer which is comprised of 40 mM tris pH 7.5, 5 mM MgCl2, and suspended in the same buffer. In a Millipore 96-well plate with a 0.65 μm polyvinylidine membrane bottom are added the reaction components: 10-μL v-src or c-src beads, 10 μL of 2.5 mg/mL poly GluTyr substrate, 5 μM ATP containing 0.2 μCi labeled ^32 P-ATP, 5μL DMSO containing inhibitors or as a solvent control, and buffer to make the final volume 125 μL. The reaction is started at room temperature by addition of the ATP and quenched 10 minutes later by the addition of 125 μL of 30% TCA, 0.1M sodium pyrophosphate for 5 minutes on ice. The plate is then filtered and the wells washed with two 250-μL aliquots of 15% TCA, 0.1M pyrophosphate. The filters are punched, counted in a liquid scintillation counter, and the data examined for inhibitory activity in comparison to a known inhibitor such as erbstatin. The method is described more fully in J. Med. Chem., 37:598-609 (1994).

| Compound | IC50 [1] [µM] | IC50 [2] [µM] | IC50 [3] [µM] | inhibition at 50 µM [4] [%] | IC50 [5] [µM] | inhibition at 50 µM [1] [%] | inhibition at 50 µM [2] [%] | Inhibition of Protein Tyrosine Kinases, V-src, % Inhibition [6] [%] | inhibition at 50 µM [3] [%] |
| --- | --- | --- | --- | --- | --- | --- | --- | --- | --- |
| CC(C)(C)NC(=O)Nc1ncc2cc(-c3c(Cl)cccc3Cl)c(NC(=O)NC(C)(C)C)nc2n1 [Example 2, 1-tert-Butyl-3-[7-(3-tert-butylureido)-6-(2,6-dichlorophenyl)-pyrido[2,3-d]pyrimidin-2-yl]urea] | 19.5 | 10.2 | 1.6 | 52.3 |  |  |  |  |  |
| CN(C)CCCNc1ncc2cc(-c3c(Cl)cccc3Cl)c(NC(=O)NC(C)(C)C)nc2n1 [Example 28, 1-tert-Butyl-3-[6-(2,6-dichlorophenyl)-2-(3-dimethylamino-propylamino)-pyrido[2,3-d]pyrimidin-7-yl]-urea] | 0.117 | 0.676 | 0.075 |  | 1.38 |  |  |  |  |
| CN1CCN(CCCNc2ncc3cc(-c4c(Cl)cccc4Cl)c(NC(=O)Nc4ccccc4)nc3n2)CC1 [Example 51, 1-{6-(2,6-Dichlorophenyl)-2-[3-(4-methyl-piperazin-1-yl)-propylamino]-pyrido[2,3-d]pyrimidin-7-yl}-3-phenyl-urea] | 0.1 | 0.573 | 0.084 |  | 0.365 |  |  |  |  |
| CC(C)(C)NC(=O)Nc1nc2nc(NCCCN3CCOCC3)ncc2cc1-c1c(Cl)cccc1Cl [Example 59, 1-tert-Butyl-3-[6-(2,6-dichlorophenyl)-2-(3-morpholin-4-yl-propylamino)-pyrido[2,3-d]pyrimidin-7-yl]-urea] | 0.085 | 0.838 | 0.072 |  | 1.19 |  |  |  |  |
| CCN(CC)CCNc1ncc2cc(-c3c(Cl)cccc3Cl)c(NC(=O)NC(C)(C)C)nc2n1 [Example 66, 1-tert-Butyl-3-[6-(2,6-dichlorophenyl)-2-(2-diethyl-amino-ethylamino)-pyrido[2,3-d]pyrimidin-7-yl]-urea] | 3.42 | 5.19 | 1.28 |  | 5.29 |  |  |  |  |
| CCNC(=O)Nc1nc2nc(NCCN(CC)CC)ncc2cc1-c1c(Cl)cccc1Cl [Example 67, 1-[6-(2,6-Dichlorophenyl)-2-(2-diethylamino-ethyl-amino)-pyrido[2,3-d]pyrimidin-7-yl]-3-ethyl-urea] | 1.56 |  | 1.39 |  | 9.42 |  |  |  |  |
| CN(C)CCCN(C)c1ncc2cc(-c3c(Cl)cccc3Cl)c(NC(=O)NC(C)(C)C)nc2n1 [Example 69, 1-tert-Butyl-3-{6-(2,6-dichlorophenyl)-2-[(3-dimethyl-amino-propyl)-methyl-amino]-pyrido[2,3-d]pyrimidin-7-yl}-urea] | 4.66 | 15.6 | 1.96 |  | 6.46 |  |  |  |  |
| CN(C)C=Nc1ncc2cc(-c3c(Cl)cccc3Cl)c(NC(=O)NC(C)(C)C)nc2n1 [Example 79, N'-[7-(3-tert-Butylureido)-6-(2,6-dichlorophenyl)-pyrido[2,3-d]pyrimidin-2-yl]-N,N-dimethylformamidine] |  | 17.8 | 8.09 | 60.9 |  |  |  |  |  |
| CC(C)NC(=O)Nc1nc2nc(N)ncc2cc1-c1c(Cl)cccc1Cl [Example 89, 1-[2-Amino-6-(2,6-dichlorophenyl)-pyrido[2,3-d]pyrimidin-7-yl]-3-isopropyl-urea] | 0.036 | 0.857 | 0.111 |  | 1.63 |  |  |  |  |
| Cc1cccc(-c2cc3cnc(N)nc3nc2N)c1C [Example 92, 6-(2,3-Dimethyl-phenyl)-pyrido[2,3-d]pyrimidine-2,7-diamine] |  |  | 2.01 |  |  | 44.5 | 33.1 | -10.1 |  |
| COc1ccccc1-c1cc2cnc(N)nc2nc1N [Example 100, 6-(2-Methoxy-phenyl)-pyrido[2,3-d]pyrimidine-2,7-diamine] |  |  |  |  |  | 46.6 | 22.3 | 6.0 | 27.1 |
| COc1cccc(-c2cc3cnc(N)nc3nc2N)c1 [Example 102, 6-(3-Methoxy-phenyl)-pyrido[2,3-d]pyrimidine-2,7-diamine] |  |  | 3.11 |  |  | 0.8 | 44.4 | -8.2 |  |
| Nc1ncc2cc(-c3cccnc3)c(N)nc2n1 [Example 107, 6-Pyridin-3-yl-pyrido[2,3-d]pyrimidine-2,7-diamine] |  |  |  |  |  | 37 | 20.5 | 1.4 | 37.2 |
| Nc1ncc2cc(-c3ccccn3)c(N)nc2n1 [Example 111, 6-Pyridin-2-yl-pyrido[2,3-d]pyrimidine-2,7-diamine] |  | 23.3 |  |  |  | 15.7 |  | -26.4 | 47.7 |
| CCNC(=O)Nc1nc2nc(NCCCN(CC)CC)ncc2cc1-c1c(Cl)cccc1Cl [Example 112, 1-[6-(2,6-Dichlorophenyl)-2-(3-diethylamino-propyl-amino)-pyrido[2,3-d]pyrimidin-7-yl]-3-ethyl-urea] | 0.077 | 1.26 | 0.128 |  | 1.08 |  |  |  |  |
| CCN(CC)CCCNc1ncc2cc(-c3c(Cl)cccc3Cl)c(NC(=O)NC(C)C)nc2n1 [Example 113, 1-[6-(2,6-Dichlorophenyl)-2-(3-diethylamino-propyl-amino)-pyrido[2,3-d]pyrimidin-7-yl]-3-isopropyl-urea] | 0.078 | 1.09 | 0.077 |  | 1.1 |  |  |  |  |
| CCN(CC)CCCNc1ncc2cc(-c3c(C)cccc3C)c(N)nc2n1 [Example 114, N^2-(3-Diethylamino-propyl)-6-(2,6-dimethyl-phenyl)-pyrido[2,3-d]pyrimidine-2,7-diamine] |  | 23.9 | 19.2 |  | 15.9 |  |  |  |  |
| CCNC(=O)Nc1nc2nc(NCCCN(CC)CC)ncc2cc1-c1c(C)cccc1C [Example 115] | 0.024 | 2.63 | 1.24 |  | 5.13 |  |  |  |  |
| CCN(CC)CCCNc1ncc2cc(-c3c(C)cccc3C)c(NC(=O)NC(C)(C)C)nc2n1 [Example 116, 1-tert-Butyl-3-[2-(3-diethylamino-propylamino)-6-(2,6-dimethyl-phenyl)-pyrido[2,3-d]pyrimidin-7-yl]-urea] | 0.098 | 0.804 | 0.335 |  | 0.91 |  |  |  |  |
